Article PMC3740496, “Synthesis and biological activities of the respiratory chain inhibitor aurachin D and new ring versus chain analogues” (Beilstein Journal of Organic Chemistry, 2013)
Converted amounts (≈) assume the structure as drawn.

Columns and labels:
[1] = system: mitochondrial membrane potential in U-2 OS osteosarcoma cells; test: MMP assay (high-content screening, TMRM); assay type: cell-based, human; conditions: 16 h; for reduction of the MMP: at concentrations as low as 5 µg/mL; for mitochondrial membrane potential (MMP), % of the control value: highest assay concentration (10 µg/mL), TMRM; for effect on MMP in the tested concentration range: 1 to 10 µg/mL
Method: Since aurachins are described as electron-transport inhibitors of the mitochondrial respiratory chain (complex I and III), we analyzed the synthetic analogues in high-content screening experiments with respect to a decrease of the mitochondrial membrane potential (MMP). Human U-2 OS osteosarcoma cells were treated for 16 hours with aurachins 4, 9–11, and 17–19 at concentrations between 1 and 10 µg/mL, and mitochondria were labeled with tetramethylrhodamine methyl ester (TMRM) in order to assess changes in MMP (Figure 2). Most prominent concentration-dependent effects were determined for aurachin D (4) and one of its analogues (17). […] This might be due to differential effects on different cell lines, a different time course of electron-transport inhibition, or a different mode of inducing apoptosis (e.g., via enhanced ROS formation). However, at the highest assay concentration also shorter chain analogues 9–11 reduced the MMP to approximately 60–80% of the control value as exemplarily shown for geranyl analogue 9 (Figure 2B).
Figure 2 (A) Loss of mitochondrial membrane potential in human U-2 OS osteosarcoma cells that were treated with aurachin D (4) and analogue 17. Images were acquired on a BD Pathway855 automated microscope and subsequently processed in AttoVision v1.6.2. The relative MMP was calculated based on TMRM fluorescence intensity in the cytoplasmic segments. The value of the negative control (untreated cells) was set to 100% and the value of FCCP-treated cells (positive control) was set to 0%. Bars represent the mean ±SEM of all cellular segments within a well. (B) Representative HCS images of U-2 OS cells that were treated with aurachin D (4) or the geranyl analogue 9. Cells were labeled with TMRM and imaged in the rhodamine channel at 200× magnification. […]
MMP assay: Human U-2 OS osteosarcoma cells (HTB-96) were obtained from the American Type Culture Collection (ATCC) and were cultured under the conditions recommended by the depositor. Cells from actively growing cultures were harvested and seeded at 8 × 10^3 cells per well in 96-well imaging plates (BD Falcon). After 1 d cells reached approximately 60% confluency and were treated with aurachin analogues at the assigned concentrations for 16 h. In addition, cells were stimulated with 1 µM FCCP [carbonyl cyanide 4-(trifluoromethoxy)phenylhydrazone] as a positive control 1 h prior to the measurement. For labeling, cells were washed twice with assay buffer ([…], 5.4 mM KCl, 2 mM MgCl2, 10 mM glucose, 2 mM CaCl2, 10 mM HEPES; pH 7.35) and 100 µL of a staining solution (50 nM TMRM, […]
5 µg/mL Hoechst33342 in assay buffer) was added. The cells were stained for 30 min at 37 °C and after washing with assay buffer the samples were examined on an automated microscope (BD Pathway855) in 200-fold magnification with appropriate filter sets for rhodamine and Hoechst. For image analysis, a dual mask (Cyto-Nuc-Ring) was applied in AttoVision v1.6.2. Presented rhodamine fluorescence intensity values were generated in the cytoplasmic segment (ring around nuclei) on a single cell basis and averaged over the complete sample (well).
In vitro antiplasmodial assays: The chloroquine-resistant strain FcB1/Colombia of Plasmodium falciparum was maintained in vitro on human erythrocytes in RPMI 1640 medium supplemented by 8% (v/v) heat-inactivated human serum, at 37 °C, under an atmosphere of 3% CO2, 6% O2, and 91% N2. In vitro drug susceptibility assays was measured by [3H]-hypoxanthine incorporation as described. Drugs were prepared in DMSO at a 10 mg/mL concentration. Compounds were serially diluted two-fold with 100 µL culture medium in 96-well plates. Asynchronous parasite cultures (100 µL, 1% parasitaemia and 1% final hematocrite) were then added to each well and incubated for 24 h at 37 °C prior to the addition of 0.5 µCi of [3H]- hypoxanthine (GE Healthcare, France, 1 to 5 Ci·mmol/mL) per well. After a further incubation of 24 h, plates were frozen and thawed. […]

[2] = system: Vero cells (nontumor cells); test: Cytotoxicity on Vero cells (MTT); assay type: cell-based; conditions: 48 h incubation
Method: (§1) was further incubated for 1.5 h. The medium was then discarded and 100 µL 2-propanol/10 N HCl (250:1) was added in order to dissolve formazan granules. The absorbance at 570 nm was measured using a microplate reader (EL808, Bio-Tek Instruments Inc.) and cell viability was expressed as a percentage relative to the respective solvent control. VERO cells: VERO cells were seeded into 96-well microplates at 10^5 cells per mL in RPMI supplemented with 10% foetal calf serum.
After 24 h, the cells were washed and two microliters of two-fold serial dilutions of each compound (10 mg/mL) was added to 100 μL of medium. Cells were then incubated for 48 h at 37 ° C under a 5% CO2 atmosphere. At the end of incubation, 20 µL of MTT solution (5 mg/mL) was added to each well and further incubated for 4 h at 37 °C to allow the formation of formazan. The crystals of formazan were then dissolved with 100 µL of a freshly prepared solution of sodium dodecyl sulfate (SDS) 10% (15 mL) and HCl 1 N (150 µL). The optical density of each well was measured at 595 nm using a multiwell plate reader. The 50% inhibition concentration was then determined by curve fitting.
MMP assay: Human U-2 OS osteosarcoma cells (HTB-96) were obtained from the American Type Culture Collection (ATCC) and were cultured under the conditions recommended by the depositor. Cells from actively growing cultures were harvested and seeded at 8 × 10^3 cells per well in 96-well imaging plates (BD Falcon). After 1 d cells reached approximately 60% confluency and were treated with aurachin analogues at the assigned concentrations for 16 h. In addition, cells were stimulated with 1 µM FCCP [carbonyl cyanide 4-(trifluoromethoxy)phenylhydrazone] as a positive control 1 h prior to the measurement. For labeling, cells were washed twice with assay buffer ([…], 5.4 mM KCl, 2 mM MgCl2, 10 mM glucose, 2 mM CaCl2, 10 mM HEPES; pH 7.35) and 100 µL of a staining solution (50 nM TMRM,

bacterial cytochrome bd = system: bacterial cytochrome bd; parameters: method as in PMID 7827023; conditions: cited from earlier work
[3] = Cytotoxicity, growth inhibition (MTT); assay type: cell-based, human; conditions: human, cell line not named at the place (Table 2: HCT-116 and K562); read-out: cytotoxic activity (IC50) on mammalian cell lines
Method: The cytotoxic activity of aurachin D (4) and analogues 9–11 and 17–19 was evaluated in growth inhibition experiments on mammalian cell lines (Table 2). After 5 days treatment, half inhibitory concentrations (IC50) were determined for human HCT-116 colon carcinoma and human K562 myelogenous leukemia cells. […]
as §1, with “VERO cells: VERO cells were seeded into 96-well microplates at 10^5 cells per mL in RPMI supplemented with 10% foetal calf serum.” left out

Row | Compound | reduction of the MMP [1] | mitochondrial membrane potential (MMP), % of the control value [1] | IC50 [2] [µg/mL] | inhibition of the cytochrome bd complex (bacterial cytochrome bd) | melting point | effect on MMP in the tested concentration range [1] | IC50 at 5 days [3] [µg/mL]
1 | CC(C)=CCC/C(C)=C/CC/C(C)=C/Cc1c(C)[nH]c2ccccc2c1=O [compound 4, aurachin D] | significantly reduced the MMP | approximately 50% | 13.8 (≈ 38 µM) | selectively inhibit | – | – | –
2 | CC(C)=CCC/C(C)=C/Cc1c(C)[nH]c2ccccc2c1=O [compound 9] | – | 60–80% | – | – | 187 to 189 °C | – | –
3 | CC(C)=CCCC(C)=CCCC(C)=CCc1c(C)[nH]c2ccc3ccccc3c2c1=O [compound 17] | significantly reduced the MMP | – | – | – | – | strongly diminished the MMP | –
4 | COc1ccc2[nH]c(C)c(CC=C(C)CCC=C(C)CCC=C(C)C)c(=O)c2c1 [compound 18] | – | – | – | – | – | essentially inactive | ~1 (≈ 2.54 µM)
5 | CC(C)=CCCC(C)=CCCC(C)=CCc1c(C)[nH]c2cc3c(cc2c1=O)OCO3 [compound 19] | – | – | 4.4 (≈ 10.8 µM) | – | 298 to 300 °C (dec.) | essentially inactive | –
